Patent publication US11319322B2, “Substituted aryl ether compound, preparation method thereof, pharmaceutical composition and use thereof” (Xiamen University, priority 2017, dated 2022)

How the values were obtained:
Assay type in all cases: cell-based
CCDC6-RET-BaF3 = target: T1, CCDC6-RET-BaF3 (Homo sapiens, UniProt P07949); test: Growth inhibition of CCDC6-RET-BaF3 cells stably transfected with kinase (MTS); conditions: 48 h, read-out: CCDC6-RET (IC50/nM)
T1 construct: fused on or other part: Q16204 (Coiled-coil domain-containing protein 6)
How it was run: (§1)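 BaF3 cells stably expressing CCDC6-RET or KIF5B-RET, or parental BaF3, 2×10^4 cells/well, treated 48 h at 37 °C with 8-point 1:3 dilutions from 10 μM (0.1% DMSO). MTS/PES added 1–4 h, OD490 read; inhibition versus DMSO and blank gave IC50.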

wild-type BaF3 = test: Growth inhibition of wild-type BaF3 cells, broad-spectrum toxicity (MTS); conditions: Mus musculus, 48 h, read-out: WT Ba/F3 (IC50/nM)
Procedure: Growth inhibitory activity of compounds on cell lines stably transfected with kinase
The activity of compounds against kinase RET is evaluated by their effect of inhibiting growth of cell lines stably transfected with kinase CCDC6-RET-BaF3, KIF5B-RET-BaF3, and wild-type BaF3 (Proc. Natl. Acad. Sci. USA., 2006, 103, 3153-8.). The growth of the cell lines stably transfected with kinase CCDC6-RET-BaF3, KIF5B-RET-BaF3 depends on their kinase activity. If a compound can inhibit the activity of the kinase RET per se or the activity of the RET signaling pathway, the compound can inhibit the growth of BaF3 cells stably transfected with kinase. […] Therefore, a larger ratio between IC50 of a compound to wild-type BaF3 and IC50 of the compound to the cell lines stably transfected with kinase CCDC6-RET-BaF3, KIF5B-RET-BaF3 indicates better targeting.
The specific test method is given as follows:
1) Medium: DMEM (Dulbecco's modified eagle medium) or RPMI 1640 (containing 10% fetal bovine serum, 100 μg/mL ampicillin, 100 μg/mL streptomycin).
2) Reagents: MTS reaction solution (containing 2 mg/mL of MTS [3-(4,5-dimethylthiazol-2-yl)-5-(3-carboxymethoxyphenyl)-2-(4-sulfophenyl)-2H-tetrazolium, inner Salt]; 100 μg/mL PES (phenazine […])).
3) Compound test: cells stably transfected with kinase (CCDC6-RET-BaF3, KIF5B-RET-BaF3) or wild-type BaF3 cells (2×10^4 cells/well) were incubated into a 96-well culture plate, the volume of cell culture fluid was 90 μL, and then 10 μL of the compound at each gradient concentration was added (the highest concentration was 10 μM, which was diluted stepwise by ⅓, and 8 concentration points were set in total; the system contained 0.1% DMSO (dimethyl sulfoxide)). The cell plate with uniformly mixed compound was cultured in a cell culture incubator (37° C.; 5% CO2) for 48 h, then 20 μL of MTS reaction solution was added, uniformly mixed and incubated in the cell culture incubator (37° C.; 5% CO2) for 1-4 hr, OD values at 490 nm were measured by a microplate reader (VARIOSKAN FLASH, Thermo). Three parallels were set in each group of experiments, with 0.1% (a final concentration) DMSO as a negative control, and a medium without cells or compounds as a blank control. The cell growth inhibition rate was calculated by the following formula: Cell growth inhibition rate %=1−(ODexperimental group−ODblank group)/(ODnegative group−ODblank group)×100%
4) IC50 calculation: The semi-inhibitory concentration of the compound acting on cell growth was calculated using GradPad Prism 5 software according to the measured cell growth inhibition rate.

KIF5B-RET-BaF3 = target: T2, KIF5B-RET-BaF3 (Homo sapiens, UniProt P07949); test: Growth inhibition of KIF5B-RET-BaF3 cells stably transfected with kinase (MTS); conditions: 48 h, read-out: KIF5B-RET (IC50/nM)
T2 construct: fused on or other part: P33176 (Kinesin-1 heavy chain)
How it was run: as §1

T2 sequence (P07949 whole entry, change not shown, the tested form may be a part): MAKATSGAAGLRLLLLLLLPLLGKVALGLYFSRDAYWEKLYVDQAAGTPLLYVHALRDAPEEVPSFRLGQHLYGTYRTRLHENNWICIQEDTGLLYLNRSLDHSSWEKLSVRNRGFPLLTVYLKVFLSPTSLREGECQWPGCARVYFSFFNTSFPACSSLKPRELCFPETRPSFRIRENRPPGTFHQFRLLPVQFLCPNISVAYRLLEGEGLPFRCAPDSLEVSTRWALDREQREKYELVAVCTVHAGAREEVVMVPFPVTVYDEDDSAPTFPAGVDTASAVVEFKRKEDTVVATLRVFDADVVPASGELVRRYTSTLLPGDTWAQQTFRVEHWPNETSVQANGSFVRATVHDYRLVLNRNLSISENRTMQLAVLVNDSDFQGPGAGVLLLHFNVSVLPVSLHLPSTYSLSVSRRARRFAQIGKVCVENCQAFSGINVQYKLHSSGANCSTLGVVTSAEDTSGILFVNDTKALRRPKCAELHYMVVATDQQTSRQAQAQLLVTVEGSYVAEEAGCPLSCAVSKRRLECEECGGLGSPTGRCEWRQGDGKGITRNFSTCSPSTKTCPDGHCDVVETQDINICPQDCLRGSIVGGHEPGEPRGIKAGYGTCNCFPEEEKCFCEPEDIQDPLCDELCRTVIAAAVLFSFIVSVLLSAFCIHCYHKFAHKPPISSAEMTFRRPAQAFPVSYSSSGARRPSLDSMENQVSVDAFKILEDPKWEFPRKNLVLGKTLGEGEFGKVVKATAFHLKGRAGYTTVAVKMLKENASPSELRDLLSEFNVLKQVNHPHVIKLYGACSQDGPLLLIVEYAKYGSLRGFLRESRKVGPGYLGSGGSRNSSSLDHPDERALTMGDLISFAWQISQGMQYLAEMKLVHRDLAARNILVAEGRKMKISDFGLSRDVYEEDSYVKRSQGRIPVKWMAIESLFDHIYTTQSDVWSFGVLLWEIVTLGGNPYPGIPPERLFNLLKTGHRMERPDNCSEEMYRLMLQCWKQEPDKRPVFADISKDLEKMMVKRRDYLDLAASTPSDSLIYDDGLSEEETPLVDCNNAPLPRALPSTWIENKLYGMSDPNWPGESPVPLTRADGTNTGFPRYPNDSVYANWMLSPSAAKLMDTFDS
T1 sequence (P07949 whole entry, change not shown, the tested form may be a part): as above

Structure (SMILES) | GI50 (CCDC6-RET-BaF3) | IC50 (wild-type BaF3) | GI50 (KIF5B-RET-BaF3)
CN1CCN(Cc2ccc(NC(=O)c3cc(Oc4nc(-c5ccncc5)nc5ccn(C)c45)ccc3-c3ccncc3)cc2C(F)(F)F)CC1 [III-v-1] | 431 nM | > 10000 nM | 835 nM
CN1CCN(Cc2ccc(C(=O)Nc3cc(Oc4nc(-c5ccncc5)nc5cc[nH]c45)ccc3Cl)cc2C(F)(F)F)CC1 [III-k-2] | 0.79 nM | 1340 nM | 17.2 nM
Cc1ccc(C(=O)Nc2ccc(CN3CCN(C)CC3)c(C(F)(F)F)c2)cc1Oc1nc(N2CCOCC2)nc2ccn(C)c12 [III-m-20] | 2960 nM | 3550 nM | 2500 nM
Cc1ccc(C(=O)Nc2ccc(CN3CCN(C)CC3)c(C(F)(F)F)c2)cc1Oc1nc(N2CC(C)OC(C)C2)nc2ccn(C)c12 (stereo not drawn) [III-m-21] | 3490 nM | 2920 nM | 3750 nM
CN1CCN(Cc2ccc(C(=O)Nc3cc(Oc4nc(-c5cccnc5)nc5cc[nH]c45)ccc3Cl)cc2C(F)(F)F)CC1 [III-k-1] | 1860 nM | 4160 nM | 1320 nM
Cc1ccc(C(=O)Nc2ccc(CN3CCN(C)CC3)c(C(F)(F)F)c2)cc1Oc1nc(-c2ccncc2)nc2ccn(C)c12 [III-m-10] | 544 nM | 623 nM | 1050 nM
Cc1ccc(Oc2nc(-c3ccc(N)cc3)nc3cc[nH]c23)cc1NC(=O)c1ccc(CN2CCN(C)CC2)c(C(F)(F)F)c1 [III-j-15] | 745 nM | 1200 nM | 620 nM
Cc1ccc(-c2nc(Oc3cc(C(=O)Nc4ccc(CN5CCN(C)CC5)c(C(F)(F)F)c4)ccc3C)c3c(ccn3C)n2)cc1 [III-m-12] | 4020 nM | 3580 nM | 4280 nM
Cc1ccc(-c2nc(Oc3cc(C(=O)Nc4ccc(CN5CCN(C)CC5)c(C(F)(F)F)c4)ccc3C)c3[nH]ccc3n2)cc1 [III-m-4] | 2720 nM | 3460 nM | 3860 nM
Cc1ccc(C(=O)Nc2ccc(CN3CCN(C)CC3)c(C(F)(F)F)c2)cc1Oc1nc(-c2ccc(O)cc2)nc2cc[nH]c12 [III-m-26] | 1320 nM | 4100 nM | 2900 nM
Cc1ccc(C(=O)Nc2ccc(CN3CCN(C)CC3)c(C(F)(F)F)c2)cc1Oc1cc(-c2cccnc2)nc2[nH]ccc12 [V-m-1] | 1020 nM | 1380 nM | 473 nM
CN1CCN(Cc2ccc(C(=O)Nc3cc(Oc4nc(-c5ccoc5)nc5cc[nH]c45)ccc3Cl)cc2C(F)(F)F)CC1 [III-k-5] | 1490 nM | 4360 nM | 1920 nM
Cc1ccc(Oc2nc(-c3ccoc3)nc3cc[nH]c23)cc1NC(=O)c1ccc(CN2CCN(C)CC2)c(C(F)(F)F)c1 [III-j-9] | 97.6 nM | 4260 nM | 464 nM
Cc1ccc(Oc2cc(-c3cccnc3)nc3[nH]ccc23)cc1C(=O)Nc1ccc(CN2CCN(C)CC2)c(C(F)(F)F)c1 [V-n-1] | 2900 nM | 2310 nM | 2120 nM
Cc1ccc(Oc2nc(-c3cccnc3)nc3c2ncn3C)cc1C(=O)Nc1ccc(CN2CCN(C)CC2)c(C(F)(F)F)c1 [I-n-2] | 3210 nM | 1610 nM | 3640 nM
CN1CCN(Cc2ccc(NC(=O)c3cccc(Oc4nc(-c5cccnc5)nc5ccsc45)c3)cc2C(F)(F)F)CC1 [VI-l-1] | 2640 nM | 4620 nM | 3220 nM
Cc1ccc(Oc2ncnc3ccn(C)c23)cc1NC(=O)c1ccc(CN2CCN(C)CC2)c(C(F)(F)F)c1 [III-j-18] | 477 nM | > 10000 nM | 1350 nM
Cc1ccc(C(=O)Nc2ccc(CN3CCN(C)CC3)c(C(F)(F)F)c2)cc1Oc1nc(-c2cccnc2)nc2[nH]ncc12 [II-m-20] | 10.6 nM | > 10000 nM | 74.3 nM
